Reference: patent US20050277602A1, “Methods employing agonists of P38 map kinase for the treatment of asthma” (priority 2004, published 2005)
“And” between values parts separate entries of the source, which are not always exact repeats. Equal values may be shown once. “Also recorded” adds a separate entry of the source. Read-outs that look alike come from different tables or passages of the source.

Columns and labels:
[1] = test system: rabbit ASM tissues; experiment: Constrictor responses to acetylcholine in isolated rabbit ASM tissues (organ bath, isometric tension); type: cell-based; details: for effect on constrictor responses to ACh in tissues not exposed to Der p1: control (vehicle-exposed) ASM; for maximal constrictor response (Tmax) to ACh: mean±SE
Procedure: (§1) Following general anesthesia with xylazine (10 mg/kg) and ketamine (50 mg/kg), rabbits were sacrificed with an overdose of pentobarbital (125 mg/kg). As described previously (Grunstein et al. (2001) Am J Physiol Lung Cell Mol Physiol 280:L229-L238), the tracheae were removed via open thoracotomy, the loose connective tissue and epithelium were carefully scraped and removed, and the tracheae were divided into ring segments. Each alternate ring was incubated for 24 hours at room temperature in the presence of either vehicle (saline) alone (control), vehicle containing cysteine (5 mM), or varying concentrations of affinity purified Der p1 allergen (0.1, 0.5, 1.0, 5.0 μg/ml) both in the absence and presence of cysteine, as addition of the latter is required to restore the cysteine protease activity of the purified Der p1. In parallel experiments, 30 min prior to incubation in control or Der p1-containing medium, ASM segments were treated with either the specific cysteine protease inhibitor, E-64 (trans-epoxysuccinyl-L-leucyl-amido (4-guanidino)-butane; 1 μM), the serine protease inhibitor, leupeptin (1 μM), the MEK1/2-specific inhibitors, U0126 (5 μM) or PD98059 (10 μM), or the specific p38 MAP kinase inhibitors, SB202190 (10 μM) or SB203580 (10 μM).
(§2) Following incubation, the ASM segments were placed in organ baths containing modified Krebs-Ringer solution aerated with 5% CO2 in oxygen (pH: 7.35-7.40), and the tissues were attached to force transducers from which isometric tension was continuously monitored on a multichannel recorder, as previously described (Hirst et al. (2002) Am J Respir Crit Care Med 165:1161-71). Cholinergic contractility was then assessed in the ASM segments by cumulative administration of acetylcholine (ACh; 10^−10 to 10^−4 M). Thereafter, the tissues were repeatedly rinsed with fresh buffer, and subsequent relaxation responses to isoproterenol (10^−10-10^−4 M) were generated after the tissues were half-maximally contracted with ACh. The constrictor dose-response curves to ACh were analyzed in terms of each tissue's maximal isometric contractile force (Tmax) to the agonist, and the relaxation responses to isoproterenol were assessed in terms of % maximal relaxation (Rmax) from the initial level of induced cholinergic contraction, and sensitivity to the relaxing agent was determined as the corresponding pD50 value (i.e., geometric mean ED50 value) associated with 50% of Rmax.

[2] = test system: rabbit ASM tissues; experiment: Relaxation responses to isoproterenol in isolated rabbit ASM tissues half-maximally contracted with ACh; type: cell-based; details: for effect on relaxation responses to isoproterenol in tissues not exposed to Der p1: control ASM
Procedure: as §1, §2

[3] = test system: ERK1/2; experiment: Immunoblot analysis of phosphorylated ERK1/2 in rabbit ASM tissues; type: cell-based; details: for effect on Der p1-induced expression of phosphorylated ERK1/2: Der p1-exposed ASM pretreated/co-treated with E-64, SB202190 or anisomycin (50 ng/ml)
Procedure: (§3) Protein levels of phosporylated and total ERK1/2 and p38 MAP kinase were assessed by Western blot analysis of whole cell lysates isolated from rabbit ASM tissues following treatment with either vehicle alone or cysteine-activated Der p1 (1 μg/ml), both in the absence and presence of E-64, SB202190, or anisomycin. The tissues were homogenized and proteins extracted in a buffer containing 50 mM Tris-HC 1,150 mM NaCl, 1 mM EDTA (pH 7.4) with 1 mM phenylmethylsulfonyl fluoride, 5 μg/mL aprotinin, and 5 μg/mL leupeptin. Following removal of insoluble debris by centrifugation, gel-loading buffer was added to the supernatants, and extracts were then loaded (using 30 μg total protein/sample) on a 10% SDS-PAGE gel for immunoblotting after transferring to a nitrocellulose membrane. The membranes were blocked with 5% nonfat dry milk and then incubated overnight with monoclonal mouse anti-human phosphotyrosine-threonine (Thr180/Tyr182)-p38 MAP kinase and p38 MAP kinase, and anti-human phosphotyrosine-threonine (Thr202/Tyr204)-p44/42 (ERK1/2) and p44/42 primary antibodies. The kinase levels were detected using enhanced chemiluminescence after a 1-hour incubation with a 1:1,000 dilution of horseradish peroxidase (HRP)-conjugated goat-anti-mouse secondary antibody, followed by exposure to autoradiography film. Protein band intensities were quantified using Alphalmager, and the data normalized relative to those obtained in untreated ASM samples.

[4] = test system: p38 MAP kinase; experiment: Immunoblot analysis of phosphorylated p38 MAP kinase in rabbit ASM tissues; type: cell-based; details: for expression of phosphorylated p38 MAP kinase relative to control (unstimulated) ASM: tissues exposed for 30 min, anisomycin 50 ng/ml or Der p1 alone
Procedure: as §3

[5] = test system: cultured human ASM (HASM) cells; experiment: IgE-induced release of IL-6 from cultured human ASM cells (ELISA); type: cell-based
Procedure: Human airway smooth muscle cells were purchased from BioWhittaker, Inc., (Walkersville, […].) The cells were cultured in 100 mm dishes in Ham's F 12 nutrient mixture (Invitrogen, Carlsbad Calif.) supplemented with 10% FBS (Hyclone, Logan, Utah) under 5% CO2 environment. After attaining 90% confluence in cell culture, the cells were used for the studies described in Example 2.
Preparations of IgE immune complexes containing human IgE and mouse monoclonal IgG2B (anti-IgE) (Biodesign International, Saco, Me.) at a 15/5 μg ratio were added to cells 24 hr after serum deprivation. The cells were harvested at the indicated time points for immunoblotting and media were collected for ELISA analysis as described below.
IL 6 accumulation in the ASM cell culture media was detected using an ELISA kit for IL 6 purchased from Research Diagnostics Inc. (Flanders, N.J.). Culture media was diluted 1:50 into a sample dilution buffer supplied in the kit. The experiments were carried out according to the manufacturer's protocol.

[6] = test system: OVA-sensitized mice; details: OVA-sensitized mice treated with U0126; cited from earlier work
[7] = test system: HL-60 leukemia cells; details: cited from earlier work
[8] = test system: ASM preparations; experiment: Intracellular cAMP accumulation in ASM preparations (EIA); type: cell-based, rabbit; details: tissues exposed to Der p1; data not shown
Procedure: Intracellular cAMP levels were assayed in control (untreated) and Der p1-treated ASM preparations under baseline (unstimulated) conditions and at 10 min following administration of isoproterenol (0.1-10 μM). Following stimulation with isoproterenol, the tissues were homogenized and the cAMP levels were measured using the Form a A cyclic AMP “PLUS” EIA kit (Biomol Inc., Plymouth Meeting, Pa.) following manufacturer's protocol.

[9] = Der p1-exposed ASM, E-64 1 μM, leupeptin 1 μM, U0126 5 μM, PD98059 10 μM, SB202190/SB203580 10 μM, anisomycin 50 ng/ml
[10] = Der p1 not pre-activated with cysteine (inactivated), data not shown
[11] = Der p1-exposed tissues, densitometry, 4 experiments

Molecule | effect of pretreatment on Der p1-induced enhanced constrictor responsiveness to ACh [1, 9] | effect on constrictor responses to ACh in tissues not exposed to Der p1 [1] | effect of pretreatment on Der p1-induced impaired relaxation responsiveness to isoproterenol [2, 9] | effect on relaxation responses to isoproterenol in tissues not exposed to Der p1 [2] | effect on Der p1-induced expression of phosphorylated ERK1/2 [3] | further results
CC(C)C[C@H](NC(=O)[C@H]1O[C@@H]1C(=O)O)C(=O)NCCCCN=C(N)N (relative stereo) [E-64, trans-epoxysuccinyl-L-leucyl-amido (4-guanidino)-butane] | largely abrogated | no effect | prevented | no effect | neither the levels of phosphorylated ERK1/2 nor p38 MAP kinase were appreciably altered | effect on Der p1-induced expression of phosphorylated p38 MAP kinase [4]: neither the levels of phosphorylated ERK1/2 nor p38 MAP kinase were appreciably altered
COc1cccc(-c2cc(=O)c3ccccc3o2)c1N [PD98059] | qualitatively comparable opposing effects; also recorded: largely prevented | neither of these inhibitors produced a significant change | qualitatively comparable opposing effects; also recorded: largely prevented | neither of these inhibitors produced a significant change |  | 
Oc1ccc(-c2nc(-c3ccncc3)c(-c3ccc(F)cc3)[nH]2)cc1 [SB202190] | further augmented |  | further significantly impaired |  | distinctly enhanced | maximal constrictor response (Tmax) to ACh ([1]; Der p1-exposed tissues pretreated with SB202190 (10 μM)): 136.2±6.2 g/g ASM wt.; maximal relaxation (Rmax) to isoproterenol ([2]; Der p1-exposed tissues pretreated with SB202190 (10 μM), mean): 37.6±7.1%; IgE-induced release of IL-6, augmented ([5]; IgE-exposed HASM cells pretreated with SB-202190): approximately 9 fold
C[S+]([O-])c1ccc(-c2nc(-c3ccncc3)c(-c3ccc(F)cc3)[nH]2)cc1 (centres unmarked) [SB203580] | qualitatively comparable opposing effects | neither of these inhibitors produced a significant change | qualitatively comparable opposing effects | neither of these inhibitors produced a significant change |  | 
N#CC(=C(/N)Sc1ccccc1N)/C(C#N)=C(\N)Sc1ccccc1N [U0126] |  |  |  |  |  | effect of pretreatment on Der p1-induced enhanced constrictor responsiveness to ACh [1]: completely abrogated; effect of pretreatment on Der p1-induced impaired relaxation responsiveness to isoproterenol [2]: largely ablated; effect on IgE-induced release of IL-6 ([5]; IgE-exposed HASM cells, concomitant pretreatment with U-0126): completely abrogated; airway hyperresponsiveness, elevated intrapulmonary eosinophil counts and cytokine levels [6]: significantly inhibit
COc1ccc(C[C@H]2NC[C@H](O)[C@H]2OC(C)=O)cc1 [anisomycin] | completely abrogated | no effect | largely prevented | no significant effect | largely abrogated | effect on phosphorylated ERK1/2 expression in unstimulated ASM ([3]; anisomycin 50 ng/ml, 30 min, no Der p1): essentially no effect; expression of phosphorylated p38 MAP kinase relative to control (unstimulated) ASM [4]: increased expression; stimulated ERK activity ([7]; stimulated HL-60 cells): inhibits; basal ERK activity ([7]; unstimulated HL-60 cells): no effect
CC(=O)N[C@@H](CC(C)C)C(=O)N[C@@H](CC(C)C)C(=O)N[C@H](C=O)CCCNC(=N)N [leupeptin] | unaffected |  | unaffected |  |  | 
Der p1: affinity purified house dust mite allergen with intrinsic cysteine protease activity, activated with cysteine (protein, UniProt P08176 99-320, looked up) Peptidase 1: TNACSINGNAPAEIDLRQMRTVTPIRMQGGCGSCWAFSGVAATESAYLAYRNQSLDLAEQELVDCASQHGCHGDTIPRGIEYIQHNGVVQESYYRYVAREQSCRRPNAQRFGISNYCQIYPPNVNKIREALAQTHSAIAVIIGIKDLDAFRHYDGRTIIQRDNGYQPNYHAVNIVGYSNAQGVDYWIVRNSWDTNWGDNGYGYFAANIDLMMIEEYPYVVIL |  |  |  |  |  | maximal constrictor response (Tmax) to ACh ([1]; ASM exposed 24 h to cysteine-activated Der p1 (1 μg/ml)): 133.7±8.4 g/g ASM wt. and 123.8±6.5 g/g ASM wt. and 119.0±8.2 g/g ASM wt.; effect on constrictor responsiveness [1, 10]: no effect; sensitivity to isoproterenol (pD50) ([2]; ASM exposed 24 h to Der p1, mean±SE): 5.99±0.04 -log M; maximal relaxation (Rmax) to isoproterenol ([2]; ASM exposed 24 h to cysteine-activated Der p1, mean±SE): 37.9±4.9% and 48.8±4.7%; effect on relaxant responsiveness [2, 10]: no effect; maximal enhanced expression of phosphorylated ERK1/2 above basal (pretreatment) level [3, 11]: 5.8 fold; maximal enhanced expression of phosphorylated p38 MAP kinase above basal (pretreatment) level [4, 11]: 3.2 fold; expression of phosphorylated p38 MAP kinase relative to control (unstimulated) ASM [4]: increased expression; isoproterenol-induced cAMP accumulation relative to control (untreated) ASM [8]: reduced
